According to patent US5573999A, “β-substituted cinnamic acid derivative” (BASF Aktiengesellschaft, priority 1991, dated 1996):

system: mitochondrial respiration; experiment: Inhibition of mitochondrial respiration (rate of reduction of cytochrome c in isolated mitochondria), yeast; type: biochemical, Saccharomyces cerevisiae; conditions: DMSO control
Description: In order to determine the effect of the compounds according to the invention on mitochondrial respiration it is first necessary to isolate the mitochondria from the organisms being investigated. For this, in the case of the yeast Saccharomyces cerevisiae, the cells in a 30 to 40% strength suspension of the yeast in an aqueous solution of 0.6M mannitol+0.01M tris[hydroxymethyl]-aminomethane+0.002M disodium ethylenediaminetetraacetate (pH 6.8) are disrupted in a glass bead mill, and the extract is fractionated by differential centrifugation at 1000× g and 12000× g. The mitochondria are in the pellet from the 12000× g centrifugation.
(§1) Used as control is a mixture with the equivalent amount of pure DMSO. The inhibition at the concentration of agent in each case is then calculated as follows [formula] where ΔE is the change in extinction, at is the change in time, [formula] is the reaction rate for the control and [formula] is the reaction rate for the sample x.
(§2) The inhibition was determined in each case at a test substance concentration of 1.8/10^-5mol/l .

Structure (SMILES)	% inhibition of respiration at 1.8 × 10^-5 mol/l test substance, Saccharomyces cerevisiae [%]
CNC(=O)/C=C(/OC)c1ccccc1COc1ccc(C(C)=NOC)cc1C [Compound 1a.89]	99
COC(=O)/C=C(/OC)c1ccccc1/C=C/c1cc[nH]c1 [Compound 1a.288]	50
COC(=O)/C=C(/OC)c1ccccc1/C=C\c1cccc([N+](=O)[O-])c1 [Compound 1a.241]	20
CCCOC(=O)/C=C(/OC)c1ccccc1COc1ccc(C(C)=NOC)cc1C [Compound 1a.75]	70
C=CCOC(=O)/C=C(/OC)c1ccccc1COc1ccc(C(C)=NOC)cc1C [Compound 1a.83]	78
CON=C(C)c1ccc(OCc2ccccc2/C(=C\C(=O)SC)OC)c(C)c1 [Compound 1a.86]	97
COC(=O)/C=C(/OC)c1ccccc1C [Compound 1.1, methyl (E)-β-methoxy-2-methylcinnamate]	23
COC(=O)/C=C(/OC)c1ccccc1/C=C\c1ccsc1 [Compound 1a.297]	70
COC(=O)/C=C(/OC)c1ccccc1Oc1cccc(C)c1 [Compound 1.90, methyl (E)-β-methoxy-2-(3-methylphenoxy)cinnamate]	85
CCCCOC(=O)/C=C(/OC)c1ccccc1COc1ccc(C(C)=NOC)cc1C [Compound 1a.77]	63
CO/N=C(\C)c1ccc(OCc2ccccc2/C(C)=C\C(=O)OC)c(C)c1 [Compound 1a.112, methyl (Z)-β-methyl-2-[2-methyl-4-(1-(E)-methoximinoethyl)phenoxy]methylcinnamate]	99
COC(=O)/C=C(/OC)c1ccccc1/C=C/c1cc(CC(C)C)no1 [Compound 1a.324]	99
COC(=O)/C=C(/OC)c1ccccc1/C=C/C1CCOC(c2ccccc2)C1 (stereo not shown) [Compound 1a.331]	79
COC(=O)/C=C(\C)c1ccccc1CBr [Compound 1.167, methyl (E)-β-methyl-2-bromomethylcinnamate]	99
CCNC(=O)/C=C(/OC)c1ccccc1COc1ccc(C(C)=NOC)cc1C [Compound 1a.91]	99
COC(=O)/C=C(\OC)c1ccccc1Oc1cccc(C)c1 [Compound 1.91, methyl (Z)-β-methoxy-2-(3-methylphenoxy)cinnamate]	22
COC(=O)/C=C(/C)c1ccccc1COc1ccccc1C [Compound 1a.108, methyl (Z)-β-methyl-2-(2-methylphenoxymethyl)cinnamate]	98
COC(=O)/C=C(/OC)c1ccccc1/C=C/c1ccc(OCc2ccccc2)cc1 [Compound 1a.264, methyl 2-[2-(4-benzyloxyphenyl)-(E)-ethenyl]-(E)-β-methoxycinnamate]	98
CCOC(=O)/C=C(/OC)c1ccccc1COc1ccc(/C(C)=N/OC)cc1C [Compound 1a.74, ethyl (E)-β-methoxy-2-[2-methyl-4-(1-methoximinoethyl)phenoxymethyl]cinnamate]	99
COC(=O)/C=C(/OC)c1ccccc1/C=C/C1CCOC(C2CCCOC2)C1 (stereo not shown) [Compound 1a.333]	20

Structure (SMILES)	% inhibition of respiration at 1.8 × 10^-5 mol/l test substance, Saccharomyces cerevisiae [%]
COC(=O)/C=C(/OC)c1ccccc1/C=C/c1ccc(C)cc1 [Compound 1a.250]	99
CO/N=C(\C)c1ccc(OCc2ccccc2/C(=C\C(N)=O)OC)c(C)c1 [Compound 1a.88, (E)-β-methoxy-2-[2-methyl-4-(1-methoximinoethyl)phenoxymethyl]cinnamide]	99
COC(=O)/C=C(/OC)c1ccccc1/C=C/c1ccccc1C [Compound 1a.247]	99
C#CCOC(=O)/C=C(/OC)c1ccccc1COc1ccc(C(C)=NOC)cc1C [Compound 1a.84]	98
COC(=O)/C=C(/OC)c1ccccc1/C=C\c1ccc(C)cc1 [Compound 1a.251]	54
COC(=O)/C=C(/OC)c1ccccc1/C=C\c1cnn(-c2ccc(OC)cc2)c1 [Compound 1a.319]	11
COC(=O)/C=C(/OC)c1ccccc1/C=C/C1CCCOC1 (stereo not shown) [Compound 1a.329]	9
COC(=O)/C=C(/OC)c1ccccc1/C=C/c1cnn(-c2cccc(Cl)c2)c1 [Compound 1a.316]	98
COC(=O)/C=C(/OC)c1ccccc1CON=C(c1ccccc1)c1ccc(Cl)cc1 [Compound 1a.358]	99
COC(=O)/C=C(/OC)c1ccccc1/C=C/c1cnn(-c2ccc(Cl)cc2)c1 [Compound 1a.320]	98
COC(=O)/C=C(\C)c1ccccc1COc1ccccc1C [Compound 1a.109, methyl (E)-β-methyl-2-(2-methylphenoxymethyl)cinnamate]	31
CO/N=C(\C)c1ccc(OCc2ccccc2/C(=C\C(=O)ON=C(C)C)OC)c(C)c1 [Compound 1a.82]	94
CCCCN(C)C(=O)/C=C(/OC)c1ccccc1COc1ccc(C(C)=NOC)cc1C [Compound 1a.101]	69
COC(=O)/C=C(/OC)c1ccccc1/C=C\c1cnn(-c2cccc(Cl)c2)c1 [Compound 1a.317]	29
COC(=O)/C=C(/OC)c1ccccc1/C=C/c1noc(-c2ccc(Cl)cc2)c1C [Compound 1a.322]	99
CCCCOc1ccc(OCc2ccccc2/C(=C\C(=O)OC)OC)cc1 [Compound 1a.37]	98
CON=C(C)c1ccc(OCc2ccccc2/C(=C\C(=O)N(C)C)OC)c(C)c1 [Compound 1a.98]	100
COC(=O)/C=C(/OC)c1ccccc1CSc1nc(-c2ccccc2)cs1 [Compound 1a.162]	76
COC(=O)/C=C(/OC)c1ccccc1/C=C/c1nnc(-c2ccccc2)s1 [Compound 1a.308]	99
CO/N=C(\C)c1ccc(OCc2ccccc2/C(C)=C/C(=O)OC)c(C)c1 [Compound 1a.113, methyl (E)-β-methyl-2-[2-methyl-4-(1-(E)-methoximinoethyl)phenoxy]methylcinnamate]	80

system: mitochondrial respiration; experiment: Inhibition of mitochondrial respiration (rate of reduction of cytochrome c in isolated mitochondria), house fly; type: biochemical, Musca domestica; conditions: DMSO control
Description: It is also possible similarly to isolate mitochondria from other organisms, e.g. from the phytopathogenic fungus Drechslera sorokiniana (synonym: Helminthosporium sativum), from the dermatophyte Trichophyton mentagrophytes, which is a human pathogen, and, for example, from the house fly (Musca domestica) as insect or from the spider mite Tetranychus urticae.
as §1, §2

Structure (SMILES)	% inhibition of respiration at 1.8 × 10^-5 mol/l test substance, Musca domestica [%]
COC(=O)/C=C(/OC)c1ccccc1/C=C/c1cc[nH]c1 [Compound 1a.288]	22
COC(=O)/C=C(/OC)c1ccccc1/C=C\c1cccc([N+](=O)[O-])c1 [Compound 1a.241]	9
COC(=O)/C=C(/OC)c1ccccc1/C=C\c1ccsc1 [Compound 1a.297]	22
